From patent publication US20120135975A1, “Substituted Esters as Cannabinoid-1 Receptor Modulators” (MERCK & CO., INC., priority 2006, published 2012) come the findings set out here.

In assay [1] the target is T1, recombinant human CB1 receptor (Homo sapiens, UniProt P21554).
T1 construct: expressed in transfected cells
Kind of assay: Cannabinoid Receptor-1 (CB1) binding assay. Conditions: [3H]CP-55940 0.6 nM, receptor expressed in CHO cells. The procedure:
(§1) Binding affinity determination is based on recombinant human CB1 receptor expressed in Chinese Hamster Ovary (CHO) cells (Felder et al, Mol. Pharmacol. 48: 443-450, 1995). Total assay volume is 250 μL (240 μL CB1 receptor membrane solution plus 5 μL test compound solution plus 5 μL [3H]CP-55940 solution). Final concentration of [3H]CP-55940 is 0.6 nM. Binding buffer contains 50 mM Tris-HCl, pH7.4, 2.5 mM EDTA, 5 mM MgCl2, 0.5 mg/mL fatty acid free bovine serum albumin and protease inhibitors (Cat#P8340, from Sigma). To initiate the binding reaction, 5 μL of radioligand solution is added, the mixture is incubated with gentle shaking on a shaker for 1.5 hours at 30° C. The binding is terminated by using 96-well harvester and filtering through GF/C filter presoaked in 0.05% polyethylenimine. The bound radiolabel is quantitated using scintillation counter. Apparent binding affinities for various compounds are calculated from IC50 values (DeBlasi et al., Trends Pharmacol Sci 10: 227-229, 1989).

Assay [2] addresses T2, recombinant human CB2 receptor (Homo sapiens, UniProt P34972).
T2 construct: expressed in transfected cells
Kind of assay: CB2 receptor binding assay. Particulars: receptor expressed in CHO cells. The procedure: as §1
The binding assay for CB2 receptor is done similarly with recombinant human CB2 receptor expressed in CHO cells.

In assay [3] the target is T1, recombinant human CB1 receptor. The assay is described as follows: Cannabinoid Receptor-1 (CB1) functional activity assay (cAMP). Format: cell-based. Conditions: CB1-CHO cells, forskolin-stimulated cAMP. As for the experimental part:
(§2) The functional activation of CB1 receptor is based on recombinant human CB1 receptor expressed in CHO cells (Felder et al, Mol. Pharmacol. 48: 443-450, 1995). To determine the agonist activity or inverse agonist activity of any test compound, 50 μL of CB1-CHO cell suspension are mixed with test compound and 70 uL assay buffer containing 0.34 mM 3-isobutyl-1-methylxanthine and 5.1 μM of forskolin in 96-well plates. The assay buffer is comprised of Earle's Balanced Salt Solution supplemented with 5 mM MgCl2, 1 mM glutamine, 10 mM HEPES, and 1 mg/mL bovine serum albumin. The mixture is incubated at room temperature for 30 minutes, and terminated by adding 30 μl/well of 0.5M HCl. The total intracellular cAMP level is quantitated using the New England Nuclear Flashplate and cAMP radioimmunoassay kit.
(§3) To determine the antagonist activity of test compound, the reaction mixture also contains 0.5 nM of the agonist CP55940, and the reversal of the CP55940 effect is quantitated. Alternatively, a series of dose response curves for CP55940 is performed with increasing concentration of the test compound in each of the dose response curves.

Assay [4] addresses T2, recombinant human CB2 receptor. Kind of assay: CB2 receptor functional assay (cAMP). Format: cell-based. Particulars: CB2 receptor expressed in CHO cells. As for the experimental part: as §2, §3
The functional assay for the CB2 receptor is done similarly with recombinant human CB2 receptor expressed in CHO cells.

T1 sequence (P21554 whole entry): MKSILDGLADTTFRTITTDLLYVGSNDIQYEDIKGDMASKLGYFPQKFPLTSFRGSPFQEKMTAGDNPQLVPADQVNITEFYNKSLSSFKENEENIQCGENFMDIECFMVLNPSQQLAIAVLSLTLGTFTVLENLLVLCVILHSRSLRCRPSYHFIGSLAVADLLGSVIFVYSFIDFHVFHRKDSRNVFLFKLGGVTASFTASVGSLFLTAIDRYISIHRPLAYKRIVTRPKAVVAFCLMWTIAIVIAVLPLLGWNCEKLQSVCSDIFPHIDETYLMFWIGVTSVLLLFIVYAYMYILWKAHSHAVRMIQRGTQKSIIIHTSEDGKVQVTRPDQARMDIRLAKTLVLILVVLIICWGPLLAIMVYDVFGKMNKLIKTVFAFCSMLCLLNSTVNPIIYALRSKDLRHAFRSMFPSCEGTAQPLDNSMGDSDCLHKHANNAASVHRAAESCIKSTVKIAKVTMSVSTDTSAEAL
T2 sequence (P34972 whole entry): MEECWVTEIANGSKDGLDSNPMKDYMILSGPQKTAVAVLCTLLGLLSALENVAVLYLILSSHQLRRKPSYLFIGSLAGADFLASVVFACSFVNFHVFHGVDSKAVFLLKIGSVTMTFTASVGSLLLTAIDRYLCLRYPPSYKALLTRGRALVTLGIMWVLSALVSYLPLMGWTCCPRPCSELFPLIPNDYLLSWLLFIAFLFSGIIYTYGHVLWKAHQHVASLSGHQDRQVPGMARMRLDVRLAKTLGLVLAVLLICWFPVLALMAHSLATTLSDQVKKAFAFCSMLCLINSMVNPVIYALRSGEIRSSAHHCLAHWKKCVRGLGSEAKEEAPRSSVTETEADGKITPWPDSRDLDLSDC

As to `C[C@H](NC(=O)C(C)(C)OC(=O)c1c(Cl)cccc1Cl)[C@@H](Cc1ccc(Cl)cc1)c1cccc(C#N)c1` [Example 30, N-(3-(4-chlorophenyl)-2(S)-(3-cyanophenyl)-1(S)-methylpropyl)-2-(2,6-dichloro-benzoyloxy)-2-methyl-propanamide], in assay [1], the IC50 stood at 2.54 nM. For the same compound, the IC50 in assay [2] came to 811 nM. Also, in assay [3], the “% max in the CB1 functional assay” value is listed as −157 % max and the EC50 amounted to 1.85 nM. In addition, in assay [4], the “% max in the CB2 functional assay” value is −192 % max and the EC50 worked out at 162 nM.
